Patent US20140314791A1, “METHODS OF TREATING CANCER” (DANA-FARBER CANCER INSTITUTE, INC., priority 2012, published 2014)

System: Lkb1-null cells
Assay: In vitro study of combination treatments with AZD7762
Format: cell-based, mouse
Details: data not shown

SMILES: Nc1ccn([C@@H]2O[C@H](CO)[C@@H](O)C2(F)F)c(=O)n1 [Gemcitabine]
- synergy with AZD7762 in the treatment of Lkb1-null cells: moderately synergistic
